Literature values as cited in patent US9181307B2, “Influenza A 2009 pandemic H1N1 polypeptide fragments comprising endonuclease activity and their use” (priority 2010, dated 2015).

Biological target: influenza endonuclease (Influenza A virus, UniProt P03433)
Details: recently reported, Kuzuhara 2009; cited from earlier work

O=C(O[C@@H]1Cc2c(O)cc(O)cc2O[C@@H]1c1cc(O)c(O)c(O)c1)c1cc(O)c(O)c(O)c1 [EGCG, [(2R,3R)-5,7-dihydroxy-2-(3,4,5-trihydroxyphenyl)chroman-3-yl]3,4,5-trihydroxybenzoate]
inhibits the influenza endonuclease: inhibits the influenza endonuclease
